Measurements published in patent publication US20230365927A1, “COMPOSITION AND METHOD FOR […] NON-NEURONAL CELLS INTO NEURONS” (INSTITUTE OF ZOOLOGY, CHINESE ACADEMY OF SCIENCES, priority 2020, published 2023).

Tested on: human foreskin fibroblasts (HFF1y, Beijing Stem Cell Bank)
Assay: Transdifferentiation of human foreskin fibroblasts into neurons in vitro (induction culture solution, then mature culture solution)
Format: cell-based
Settings: for rank of gene expression level of neuronal markers (MAPT and MAP2) by myosin inhibitor in the culture solutions: induction 7 days, mature solution (with isoxazole) 7 days, Examples 8-12
Procedure: After removing the fibronectin solution, the human foreskin fibroblasts (HFF1y, Beijing Stem Cell Bank) were evenly inoculated at 2×10^6 cells per vessel, culturing with basal medium (high glucose DMEM (Gibco, C12430500BT) plus 10% fetal bovine serum (Gibco, 16000-044)) for 12 hours. After removing the basal medium, the cells were washed with PBS.
An induction culture solution was added to the HFF1y vessel after undergoing the above treatment to culture for 1-7 days.
After the above induction culture for 1-7 days, a mature culture solution was added to HFF1y to culture for 7-45 days.

[1] = induction solution without Ble 7 days, then mature solution with ISX9 and without Ble 7 days

SMILES | rank of gene expression level of neuronal markers (MAPT and MAP2) by myosin inhibitor in the culture solutions | cell morphology (micrograph) [1] | expressions of canonical neuronal markers (GFAP, TUJ1, MAP2, MAPT, STMN1, NCAM) and synapse-related proteins (NEFH, PSD95, SYN1, SYT) [1] | gene expression of fibroblast marker FSP1 [1] | gene expression of neural transcription factors (ASCL1, BRN2, NEUROD1) [1] | RNA-seq, GO cluster analysis of up-regulated genes (induction culture system comprising only Ble, p<0.05) | cell morphology after induction culture solution only (induction solution 25 μM Ble, 1-7 days, no isoxazole)
Cc1ccc2c(c1)C(=O)[C@]1(OC(=O)c3ccccc3)CCN(c3ccccc3)C1=N2 [Ble-OB, (−)-Blebbistatin O-Benzoate] | third |  |  |  |  |  | 
O=C(NC1CC1)c1cc(-c2cccs2)on1 [ISX9, isoxazole 9] |  | do not appear neuron-like morphology | significantly up-regulated | significantly down-regulated | up-regulated |  | 
Cc1ccc2c(c1)C(=O)[C@]1(O)CCN(c3ccccc3)C1=N2 [Ble, (−)-Blebbistatin] | highest |  |  |  |  | up-regulated genes in induced cells were enriched in the neuronal fate-related pathways | obvious neuronal morphology, small and round cell bodies, and rich and long synapses
